# Test results reported in US8936793B2, “Synthetic archaeal glycolipid adjuvants” (National Research Council of Canada, priority 2006, dated 2015).
# How the values were obtained:
# [1] = test system: antigen specific EG.7 targets; assay: CTL activity in splenocytes of immunized mice, Cr51-assay; assay type: in vivo, C57BL/6 mice; conditions: 15 μg OVA s.c. 0 and 3 weeks; spleens 7 weeks after first immunization
# Description: To determine adjuvant activity, various synthetic archaeosomes with OVA entrapped (OVA-archaeosomes) were used to immunize female C57BL/6 mice on days 0 and 21 (6-8 weeks old on first injection). Injections were subcutaneous at the tail base with 0.1 ml PBS containing 15 μg OVA entrapped in 0.2-0.63 mg lipids. Blood samples were collected from the tail vein for anti-OVA IgG/IgM antibody titration done by ELISA (13). In some cases faecal extracts were assayed for IgA (and IgG) to assess mucosal responses following systemic immunizations. Fresh faeces (about 30 mg dry weight) were collected from 4 mice/group, and extracted by adding 0.5 ml of phosphate buffered saline (pH 7.0) containing 10% fetal calf serum and 0.1% sodium azide. Homogenized samples were centrifuged and Elisa measured anti OVA antibody in supernatants. Spleens were collected to determine CTL activity using the Cr^51-assay with specific and non-specific targets EG.7 and EL-4, respectively (14). In Elispot assays antigen-specific CD8^+ T cell activity was measured in splenic cells from immunized mice by determining the number of SIINFEKL stimulated IFN-γ-secreting cells per 5×10^5 splenic cells (15).
# [2] = test system: antigen-specific CD8+ T cell; assay: Antigen-specific CD8+ T cell activity in blood by tetramer assay; assay type: in vivo, C57BL/6J mice; conditions: glyco-archaeol/DPPG/chol (25/55/20, mol %); data not shown
# Description: Mice vaccinated with synthetic archaeosomes containing an appropriate antigen were protected from infection (FIG. 13). […] The lower CD8^+ T cell response observed for this latter archaeosome previously appears to be in part due to the shorter period from first injection to assay in FIG. 7C. In this example (FIG. 13), the antigen-specific CD8^+ T cell activity was measured in blood by tetramer assay and found to be about 30% as high in the maltotriose-A group compared to the gentiotriose-A group (data not shown).
# [3] = test system: Listeria monocytogenes (LM)-OVA construct; assay: Protection against LM-OVA challenge after vaccination, splenic CFU; assay type: in vivo; conditions: glyco-archaeol/DPPG/chol (25/55/20, mol %), FIG. 13
# Description: FIG. 13 illustrates protection against LM-OVA challenge after vaccination with OVA-adjuvant combinations. C57BL/6J mice were immunized on day 0 and 21 with 15 ug OVA entrapped in various synthetic archaeosomes composed of the respective synthetic glyco-archaeol/DPPG/chol (25/55/20, mol %). At 8 weeks, mice were challenged with 10^4 intravenous dose of Listeria monocytogenes (LM)-OVA construct. Mice were euthanized 3 days later. Mean±SEM of splenic colony forming units (CFU) is shown for each group.
# Macrophages J774A.1 = assay: Up-regulation of co-stimulatory molecule CD80 on APCs, flow cytometry; assay type: cell-based; conditions: 25 μg liposomes or archaeosomes 48 h; LPS 10 μg 24 h; anti-CD80-PE
# Description: Macrophages J774A.1 were incubated for 48 h with 25 μg of archaeosomes prior to staining and analysis by flow cytometry (Table 13). […] Immuno-activity was clearly ascribed to the synthetic glyco-archaeal lipid.
Compound,"CTL adjuvant activity, FIG. 3 [1]","antigen-specific CD8+ T cell activity in blood, % as high as the gentiotriose-A group [2]",protection from LM-OVA infection [3],Mean fluorescence Intensity CD80 (Macrophages J774A.1)
CC(C)CCC[C@@H](C)CCC[C@@H](C)CCC[C@@H](C)CCOC[C@H](CO[C@@H]1O[C@H](CO)[C@@H](O[C@H]2O[C@H](CO)[C@@H](O[C@H]3O[C@H](CO)[C@@H](O)[C@H](O)[C@H]3O)[C@H](O)[C@H]2O)[C@H](O)[C@H]1O)OCC[C@H](C)CCC[C@H](C)CCC[C@H](C)CCCC(C)C [maltotriose-A],best adjuvant activity,about 30%,striking protection,–
Lipopolysaccharide,–,–,–,33.2
